# Test results from publication PMC7876453, “Targeting Indoleamine 2,3-Dioxygenase in Cancer Models Using the Novel Small Molecule Inhibitor NTRC 3883-0” (Frontiers in Immunology, 2021).
# Read-outs that look alike come from different tables or passages of the source.
# Legend:
# [1] = target: T1, A375 + IFNγ (hIDO1) (Homo sapiens, UniProt P14902); experiment: cell-based assay, Trp-catabolizing activity in IFNγ-stimulated A375 cells; conditions: IFNγ-stimulated A375 human melanoma cells
# T1 construct: host or cells: A375 cells stimulated with IFNγ
# [2] = target: T2, hWB + IFNγ (hIDO1) (Homo sapiens, UniProt P14902); experiment: human whole blood assay, Trp-catabolizing activity after IFNγ stimulation; format: cell-based; conditions: human whole blood from healthy donors
# T2 construct: from tissue; host or cells: heparinized human whole blood from healthy donors, IFNγ-stimulated
# [3] = target: T3, CYP3A4 (Homo sapiens, UniProt P08684); experiment: CYP3A4 inhibition (P450-Glo); format: in vitro ADME; conditions: 10 µM
# T3 construct: purchased Promega V9920
# Protocol: (§1) Full-length recombinant human and mouse IDO1 were expressed in Escherichia coli with a hexahistidine tag at the N-terminus, and purified by affinity chromatography to > 95% purity, as described ([8]). Human and mouse TDO containing a C-terminal hexahistidine tag were analogously expressed and purified to > 95% purity ([8]). The inhibitory activity of compounds was determined with the NFK GreenScreen assay technology under the conditions as described ([8]), except for the reaction buffer for IDO1, which was replaced by 50 mM NaH2PO4, pH 7.0, supplemented with 0.01% Tween-20 and 1% glycerol. Inhibition of the CYP3A4 and CYP2D6 enzymes was determined with the P450-Glo™ Screening System with Luciferin-IPA (Promega, #V9920 and V9890). For determination of IC50 values, the effect of inhibitors was determined in 10-point duplicate dose-response curves. Graphs were fitted to a four-parameter logistics equation in XLfit (ID Business Solutions, Ltd., Guildford, UK) from which IC50 values were calculated.
# [4] = target: T4, CYP2D6 (Homo sapiens, UniProt P10635); experiment: CYP2D6 inhibition (P450-Glo); format: in vitro ADME; conditions: 10 µM
# T4 construct: purchased Promega V9890
# Protocol: as §1
# [5] = test system: CD8-positive T cells co-cultured with HEK-hIDO1 cells; experiment: co-culture assay of HEK-hIDO1 cells with PBMCs, CFSE proliferation; format: cell-based, human; conditions: 7.5 µM Trp; 10 µM NTRC 3883-0, 1 µM epacadostat; 5 days
# [6] = test system: B16F10-mIDO1 subline j19 in female B6D2F1 mice; experiment: B16F10-mIDO1 syngeneic mouse model, intervention study; format: in vivo
# From the text: For development of the mIDO1-overexpressing B16F10 mouse model, performed at Charles River Laboratories, female B6D2F1 mice were implanted subcutaneously with 1 × 10^6 parental B16F10 cells or B16F10-mIDO1 cells (subline i6 or j19) on day 0 with n = 10 mice per group. A tumor volume of 2000 mm^3 was used as the endpoint of the experiment for the individual animals. To determine the optimal inoculation cell concentration, mice were implanted with 3 × 10^5, 1 × 10^5 or 3 × 10^4 parental or mIDO1-overexpressing B16F10 cells (subline j19) with n = 5 mice per group. The same endpoint of the experiment was used as described above. […] For the intervention study, 3 x 10^5 cells of the B16F10-mIDO1 subline j19 were implanted on day 0, and treatment was started on day 3 with vehicle (DMSO, Kolliphor, 5% mannitol; […]. Four animals were excluded from analysis due to non-treatment-related deaths. Tumors and plasma were sampled 2 h post last dose.
# […]. After centrifugation, proteins were removed from the homogenized tissue supernatants and plasma samples by precipitation with methanol. The concentrations of inhibitor, Trp and Kyn were determined by LC-MS/MS.
# [7] = in vivo pharmacokinetics, mouse; design: species or system male CD-1 mice; conditions: male; for clearance / Vd: intravenous; for Vd: read-out: Vss
# Protocol: Pharmacokinetic properties of NTRC 3883-0 were determined in plasma following single oral (p.o.) and i.v. administration to male CD-1 mice (n = 6 per treatment group with three mice sampled per time point), Wistar rats (n = 3), cynomolgus monkey (n = 1) and Beagle dogs (n = 3). Formulations were prepared in DMSO, Kolliphor® EL, 5% D-mannitol in Elix water at a volume ratio of 1:1:8 for i.v. administration, and in 0.5% gelatin, 5% D-mannitol in Elix water for p.o. administration. Plasma samples were collected at eight to eleven time points up to 24 h after administration. Pharmacokinetic properties and required dosing in humans were predicted by allometric scaling by Karin Jorga Life Science Consulting (Basel, Switzerland) ( Figure S2 and Table S2 ).
# [8] = plasma protein binding, rat; format: in vitro ADME
# Protocol: Supplement DataSheet_1.docx, table 2: Table S2. Pharmacokinetic parameters of NTRC 3883-0 observed in mouse, rat, monkey and dog, and predicted for humans using allometric scaling. Data in bold are measured, while data in italics are calculated or predicted (for humans). The clearance (Cl) and volume of distribution at steady state (Vss | column: Rat
# [9] = test system: dog whole blood; experiment: dog whole blood assay; format: cell-based; conditions: Canis lupus familiaris
# [10] = test system: IFNγ-stimulated adherent cell samples isolated from ascites of ovarian cancer patients; experiment: Trp-catabolizing activity in IFNγ-stimulated ascites cell samples; format: cell-based; conditions: Homo sapiens
# Protocol: Ascites was collected from patients with a primary diagnosis of advanced epithelial ovarian cancer during paracentesis for diagnostics or symptom relieve, or during primary debulking surgery. Ascites was filtered and cells were collected by centrifugation as described ([23]). To enrich for tumor cells, ascites cell samples were allowed to adhere overnight to tissue culture plastic. The cell samples were then cultured for 2–3 weeks in advanced RPMI medium (ThermoFisher), supplemented with 10% FBS, 1% glutamax and 1% P/S, with 2 or 3 times passaging of the cells. qPCR analyses of the MUC16, HE4, IDO1, and TDO2 genes were performed for all samples as described above. Five samples which could be cultured over multiple passages were analyzed for cell surface expression of mucin-16 and EpCAM by flow cytometry using FITC-conjugated anti-mucin-16 (AssayPro, #32189-05141) and APC-conjugated anti-EpCAM (Miltenyi, #130-111-117, RRID: AB_2657496) to assure that the cell cultures consisted of malignant cells. IDO1 mRNA and protein levels in these samples were analyzed as described above after incubation with or without 200 ng/ml IFNγ for 24 h. The collection of ascites and the research described was conducted with approval of the medical ethical committee of the Radboud university medical center and informed written consent from each subject.
# [11] = target: B16F10-mIDO1 (Mus musculus, UniProt P28776); experiment: cell-based assay, Trp-catabolizing activity in B16F10-mIDO1 cells
# [12] = 100 mg/kg p.o. b.i.d. from day 3
# [13] = 100 mg/kg p.o. b.i.d., 2 h post last dose
# [14] = CD-1, plasma, mouse, body weight 0.036 kg
# Sequence of B16F10-mIDO1 (P28776 whole entry): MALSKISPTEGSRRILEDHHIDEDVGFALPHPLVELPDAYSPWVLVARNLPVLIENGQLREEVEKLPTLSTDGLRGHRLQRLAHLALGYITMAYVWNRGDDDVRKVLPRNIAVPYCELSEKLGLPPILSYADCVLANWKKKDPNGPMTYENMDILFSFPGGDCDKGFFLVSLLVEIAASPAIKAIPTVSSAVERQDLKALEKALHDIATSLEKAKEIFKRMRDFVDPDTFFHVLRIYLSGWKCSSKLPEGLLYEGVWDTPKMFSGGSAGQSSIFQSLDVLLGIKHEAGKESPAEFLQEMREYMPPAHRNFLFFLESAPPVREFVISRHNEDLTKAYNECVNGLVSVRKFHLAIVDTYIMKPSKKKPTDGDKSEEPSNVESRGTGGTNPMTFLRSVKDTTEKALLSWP
# T1 sequence (P14902 whole entry): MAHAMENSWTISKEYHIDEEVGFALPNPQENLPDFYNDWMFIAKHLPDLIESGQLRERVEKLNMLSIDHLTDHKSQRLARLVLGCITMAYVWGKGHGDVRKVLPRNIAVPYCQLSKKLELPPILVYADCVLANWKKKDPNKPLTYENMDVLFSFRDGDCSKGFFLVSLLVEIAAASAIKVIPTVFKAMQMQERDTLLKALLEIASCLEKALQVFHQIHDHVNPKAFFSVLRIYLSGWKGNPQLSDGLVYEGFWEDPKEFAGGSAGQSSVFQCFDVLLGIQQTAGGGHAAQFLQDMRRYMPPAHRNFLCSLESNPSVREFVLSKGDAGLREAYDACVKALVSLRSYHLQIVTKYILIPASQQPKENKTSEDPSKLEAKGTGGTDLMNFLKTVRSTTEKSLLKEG
# T2 sequence (P14902 whole entry): as above
# T4 sequence (P10635 whole entry): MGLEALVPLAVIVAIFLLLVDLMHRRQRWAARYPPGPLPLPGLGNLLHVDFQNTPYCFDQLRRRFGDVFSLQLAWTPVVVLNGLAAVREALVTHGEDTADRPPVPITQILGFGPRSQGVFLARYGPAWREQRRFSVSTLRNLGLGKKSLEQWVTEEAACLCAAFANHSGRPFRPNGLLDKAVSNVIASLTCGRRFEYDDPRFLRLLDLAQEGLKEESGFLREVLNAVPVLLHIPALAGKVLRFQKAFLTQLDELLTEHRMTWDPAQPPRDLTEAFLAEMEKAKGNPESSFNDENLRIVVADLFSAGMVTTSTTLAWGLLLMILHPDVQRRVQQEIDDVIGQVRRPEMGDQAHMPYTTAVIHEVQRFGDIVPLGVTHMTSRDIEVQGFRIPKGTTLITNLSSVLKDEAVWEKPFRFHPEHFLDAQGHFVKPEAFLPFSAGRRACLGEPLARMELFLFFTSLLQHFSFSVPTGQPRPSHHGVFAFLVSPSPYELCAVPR
# T3 sequence (P08684 whole entry): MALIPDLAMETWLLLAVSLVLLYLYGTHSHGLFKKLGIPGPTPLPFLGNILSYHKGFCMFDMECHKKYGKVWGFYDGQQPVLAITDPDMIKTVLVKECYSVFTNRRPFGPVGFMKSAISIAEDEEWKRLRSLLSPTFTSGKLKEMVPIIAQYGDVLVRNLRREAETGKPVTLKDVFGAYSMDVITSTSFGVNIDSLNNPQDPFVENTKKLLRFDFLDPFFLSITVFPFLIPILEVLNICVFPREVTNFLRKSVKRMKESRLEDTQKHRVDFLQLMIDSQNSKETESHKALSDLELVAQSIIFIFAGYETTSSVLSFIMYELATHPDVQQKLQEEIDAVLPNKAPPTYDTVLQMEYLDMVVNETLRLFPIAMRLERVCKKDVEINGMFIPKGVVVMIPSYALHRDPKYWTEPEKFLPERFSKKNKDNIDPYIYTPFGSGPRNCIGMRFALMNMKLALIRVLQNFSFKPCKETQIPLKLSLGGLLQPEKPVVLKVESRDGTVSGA
smiles,measurement,setting,value
O=C1CN(C(=O)c2c(F)cccc2F)[C@H](c2cccc(Br)c2)N1O [NTRC 3883-0],IC50,[1],0.182 µM
same,IC50,[2],0.378 µM
same,inhibition of CYP3A4 activity,[3],did not inhibit
same,inhibition of CYP2D6 activity,[4],did not inhibit
same,effect on IDO1-mediated inhibition of T cell proliferation (in words),[5],relieved the inhibitory effect
same,times lower intratumoral levels of Kyn compared to epacadostat,[6]; 100 mg/kg p.o. b.i.d.,3.6 times
same,tumor growth corrected for the variation in time until tumor establishment,[6]; [12],delay in tumor growth
same,tumor growth in comparison to vehicle-treated animals,[6]; [12],no effect
same,times lower inhibitor level in plasma compared to epacadostat,[6]; [13],1.8 times
same,times lower inhibitor level in the tumors compared to epacadostat,[6]; [13],2.2 times
same,intratumoral Trp levels,"[6]; 100 mg/kg p.o. b.i.d., LC-MS/MS",slightly more efficient in increasing Trp
same,half-life,"[7]; CD-1, mouse, plasma",5.2 h
same,clearance,"[7]; CD-1, mouse, plasma",1.11 L/h/kg
same,Vd,"[7]; CD-1, mouse, plasma",3.63 L/kg
same,clearance,[7]; [14],0.667 mL/min
same,Vd,[7]; [14],0.131 L
same,fraction unbound,[8],0.15
same,IC90,[9],1 µM
same,IC50,"[10]; IFNγ-stimulated samples, read-out: IC50",0.261 µM
same,IC50,"[10]; IFNγ-stimulated, read-out: IC50 ASC 009",0.236 µM
same,IC50,"[10]; IFNγ-stimulated, read-out: IC50 ASC 010",0.294 µM
same,IC50,"[10]; IFNγ-stimulated, read-out: IC50 ASC 013",0.237 µM
same,IC50,"[10]; IFNγ-stimulated, read-out: IC50 ASC 031",0.271 µM
same,IC50,"[10]; IFNγ-stimulated, read-out: IC50 ASC 041",0.321 µM
same,IC50,[11],0.018 µM
same,times more potent compared to epacadostat in B16F10-mIDO1 assay,[11],5 times
